{"source": "patent US10793543B2", "about": "“Selective C-KIT kinase inhibitor” (PRECEDO PHARMACEUTICALS CO., LTD, priority 2016, dated 2020)", "key": {"[1]": {"test_system": "GIST-T1 cells", "experiment": "Apoptosis, PARP and Caspase 3 cleavage by Western Blot, GIST-T1", "format": "cell-based, human", "conditions": "GIST-T1, 0.3 μM, 48 hours", "description": "The effects of different concentrations of drugs on protein cleavage of DNA repairase poly(ADP-ribose) polymerase (PARP) and Caspase (cysteinyl aspartate-specific proteinase) 3 at different periods of time were examined by Western Blot."}, "[2]": {"test_system": "Tel-cKit/V559D-BaF3 cells (KIT V559D)", "experiment": "Cell proliferation, CCK-8, Tel-cKit/V559D-BaF3", "format": "cell-based", "conditions": "Mus musculus, 72 hours", "description": "(§1) In addition, in the present example, further uses: mouse P210/BaF3 (stably expressing P210 Bcr-Abl mutant gene), mouse Tel-ABL-BaF3 (stably expressing wild-type ABL kinase), mouse Tel-cKit-BaF3 (stably expressing C-KITwild-type kinase), mouse Tel-cKit/V559D-BaF3 (stably expressing C-KIT V559D mutant kinase), mouse Tel-cKit/V559D/V654A-BaF3 (stably expressing C-KIT V559D/V654A mutant kinase), mouse Tel-cKit/N822K-BaF3 (stably expressing C-KIT N822K mutant kinase), mouse Tel-cKit/V654A-BaF3 (stably expressing C-KIT V654A mutant kinase), mouse Tel-cKit/L567P-BaF3 (stably expressing C-KIT L567P mutant kinase), mouse Tel-cKit/T670I-BaF3 (stably expressing C-KIT T670I mutant kinase), mouse Tel-PDGFRα-BaF3 (stably expressing PDGFRα kinase), mouse Tel-PDGFRβ-BaF3 (stably expressing PDGFRβ kinase), mouse Tel-VEGFR2-BaF3 (stably expressing VEGFR2 kinase), mouse Tel-RET-BaF3 (stably expressing RET kinase). The above cell lines were all constructed by our laboratory according to the following method: the kinase region sequences of human P210 Bcr-Abl, ABL, C-KIT, C-KIT V559D, C-KIT V559D/V654A, C-KIT N822K, C-KIT V654A, C-KIT L567P, C-KIT T670I, PDGFRα, PDGFRβ, VEGFR2, RET were amplified respectively by PCR, inserted respectively into MSCV-Puro vectors harboring N-terminal TEL fragment and/or NPM fragment and/or TPR fragment (Clontech), then the vectors were stably transfected into mouse BaF3 cells by retrovirus methods and growth factor IL-3 was removed, eventually obtaining cell lines that are transferred protein (P210 Bcr-Abl, ABL, C-KIT, C-KIT V559D, C-KIT V559D/V654A, C-KIT N822K, C-KIT V654A, C-KIT L567P, C-KIT T670I, PDGFRα, PDGFRβ, VEGFR2, RET)-dependent.\n(§2) The cells were incubated for 72 hours, and then the number of viable cells was quantified with a microplate reader by using CCK-8 Cell Viability Assay Kit (purchased from Bestbio Company, Shanghai, China) (CCK-8 can be reduced by dehydrogenase in living cells to a highly water-soluble yellow formazan product, and the amount of formazan produced is proportional to the number of living cells)."}, "[3]": {"experiment": "Acute toxicity assay in mice, single oral gavage", "format": "in vivo", "conditions": "for Number of death (number of death/number of animals in each group): female mice, 7 days observation", "method": "1. 4-6 week-old Bal b/c female mice were purchased from Shanghai SLAC Experimental Animal Co., Ltd., and were raised in a SPF-level laboratory. Drinking water and padding were both subjected to aseptic processing via high-pressure disinfection, and all operations of the mice were conducted under aseptic conditions; 10 healthy mice were selected, and were balanced and randomly divided into 5 groups according to their weights.\n2. Specific Information for Administration\nRoute of administration: oral gavage\nObservation period: 7 days.\n3. Observation Indicators\nWeighing frequency: upon grouping, the day of administration (D0) to the seventh day after administration (D7). Based on the mouse weight on D0 (starting value of 100%), the graph of the relative body weight over time was plotted.\n3.2. Clinical Symptoms Observation\nStrict observation was carried out within 4 hours after administration, and then observation was carried out twice a day for a total of 7 days. Observation was carried out and abnormal symptoms or phenomena in each of animals were recorded.\nThe number of animals died in each of dosage groups during the observation period.\nComprehensive determination was performed based on animal mortality, clinical symptoms and body weights."}, "[4]": {"test_system": "Tel-cKit-BaF3 cells (KIT WT)", "experiment": "Cell proliferation, CCK-8, Tel-cKit-BaF3", "format": "cell-based", "conditions": "Mus musculus, 72 hours", "description": "as §1, §2"}, "[5]": {"test_system": "GIST-882 cells", "experiment": "Cancer cell proliferation, CCK-8, GIST-882", "format": "cell-based", "conditions": "Homo sapiens, GIST882, GIST-882, KIT WT, 72 hours", "description": "(§3) In the present example, the following cells were used: chronic myelogenous leukemia cells K562 (expressing P210 Bcr-Abl mutant gene), human megakaryocytic leukemia cells MEG-01 (expressing P210 Bcr-Abl mutant gene), human peripheral blood basophilic leukemia cells Ku812 (expressing Bcr-Abl mutant gene) (all above cells purchased from ATCC, USA), human gastrointestinal stromal tumor cell lines GIST-T1 cells (expressing wild-type C-KIT gene) (purchased from Cosmo Bio Co., Ltd., Japan), human gastrointestinal stromal tumor cell lines GIST-882 cells (expressing wild-type C-KIT gene) (presented by the Professor Gray Lab, Dana-Farber Cancer Institute, Harvard University, USA), mouse pro-B cells BaF3 (purchased from ATCC, USA).\nas §2"}, "[6]": {"test_system": "Tel-cKit/L576P-BaF3 cells (KIT L576P)", "experiment": "Cell proliferation, CCK-8, Tel-cKit/L576P-BaF3", "format": "cell-based", "conditions": "Mus musculus, 72 hours", "description": "as §1, §2"}, "[7]": {"test_system": "MEG-01 cells (P210 Bcr-Abl)", "experiment": "Cancer cell proliferation, CCK-8, MEG-01", "format": "cell-based", "conditions": "Homo sapiens; MEG-01, P210 Bcr-Abl, 72 hours, CCK-8; read-out: GI50", "description": "as §3, §2"}, "[8]": {"test_system": "Tel-RET-BaF3 cells (RET WT)", "experiment": "Cell proliferation, CCK-8, Tel-RET-BaF3", "format": "cell-based", "conditions": "Mus musculus, 72 hours", "description": "as §1, §2"}, "[9]": {"test_system": "phosphorylation of C-KIT and pathway proteins in GIST-T1 cells", "experiment": "Effects on cell signaling pathways (phosphorylation), GIST-T1", "format": "cell-based, human", "conditions": "GIST-T1, 0.1 μM, 2 hours"}, "[10]": {"test_system": "phosphorylation of Bcr-Abl kinase and pathway proteins in K562 cells", "experiment": "Effects on cell signaling pathways (phosphorylation), K562", "format": "cell-based, human", "conditions": "K562, concentration up to 3 μM, 2 hours"}, "[11]": {"test_system": "Tel-cKit/V559D/V654A-BaF3 cells (KIT V559D/V654A)", "experiment": "Cell proliferation, CCK-8, Tel-cKit/V559D/V654A-BaF3", "format": "cell-based", "conditions": "Mus musculus, 72 hours", "description": "as §1, §2"}, "[12]": {"test_system": "Tel-cKit/V654A-BaF3 cells (KIT V654A)", "experiment": "Cell proliferation, CCK-8, Tel-cKit/V654A-BaF3", "format": "cell-based", "conditions": "Mus musculus, 72 hours", "description": "as §1, §2"}}}
{"compound": "Cc1ccc(NC(=O)c2cccc(C(F)(F)F)c2)cc1OC1CCN(C(=O)c2ccncc2)CC1", "note": "[Compound 4]", "values": [{"measurement": "cleavage of PARP and Caspase 3", "setting": "[1]", "result": "significant cleavage"}, {"measurement": "GI50", "setting": "[2]", "result": 0.04, "unit": "µM"}, {"measurement": "Number of death (number of death/number of animals in each group)", "setting": "[3]; 250 mg/kg single oral gavage", "result": "♀: 0/2:"}, {"measurement": "Number of death (number of death/number of animals in each group)", "setting": "[3]; 500 mg/kg single oral gavage", "result": "♀: 0/2:"}, {"measurement": "effect on mouse weight", "setting": "[3]; 1000 mg/kg single oral gavage", "result": "no significant effect on mouse weight"}, {"measurement": "Number of death (number of death/number of animals in each group)", "setting": "[3]; 1000 mg/kg single oral gavage", "result": "♀: 0/2:"}, {"measurement": "effect on mouse weight", "setting": "[3]; 2000 mg/kg single oral gavage", "result": "decreased slightly"}, {"measurement": "Number of death (number of death/number of animals in each group)", "setting": "[3]; 2000 mg/kg single oral gavage", "result": "♀: 0/2:"}, {"measurement": "mouse organs on dissection", "setting": "[3]; dissected after 7 days, single oral gavage", "result": "no obvious abnormalities"}, {"measurement": "mice died", "setting": "[3]; mouse, in vivo", "result": "no mouse died"}, {"measurement": "maximum tolerated dosage", "setting": "[3]; mouse, single oral gavage", "result": 2000, "unit": "mg/kg"}, {"measurement": "GI50", "setting": "[4]", "result": 0.19, "unit": "µM"}, {"measurement": "GI50", "setting": "[5]", "result": 0.043, "unit": "µM"}, {"measurement": "GI50", "setting": "[6]", "result": 0.148, "unit": "µM"}, {"measurement": "GI50", "setting": "[7]", "result": 7.43, "unit": "µM"}, {"measurement": "GI50", "setting": "[8]", "result": 0.59, "unit": "µM"}, {"measurement": "phosphorylation of C-KIT oncogenic protein", "setting": "[9]", "result": "significantly inhibiting"}, {"measurement": "phosphorylation of proteins such as Stat5, AKT, ErK, S6K, S6, PDGFRα", "setting": "[9]", "result": "significant inhibitory effects"}, {"measurement": "phosphorylation of Bcr-Abl kinase", "setting": "[10]", "result": "no effect"}, {"measurement": "phosphorylation of proteins such as AKT, ErK", "setting": "[10]", "result": "no effect"}, {"measurement": "GI50", "setting": "[11]", "result": 1.05, "unit": "µM"}, {"measurement": "GI50", "setting": "[12]", "result": 1.03, "unit": "µM"}]}
